Test results published in patent US20030125387A1 (priority 2000, published 2003).
Converted amounts (≈) assume the structure as drawn. Where two headings read alike, the source gives them in different places. Blank lines part the entries; values can stand above or below the compound they belong to.

Experiments:
[1] = Studies using 14C labelled benzyl alcohol: dissipation from injection site and removal from body; type: in vivo
[2] = system: human breast cancer cells; details: human breast cancer cells in vitro; cited from earlier work
[3] = in vivo; cited from earlier work
[4] = Aqueous solubility of fulvestrant, estimate from a water/solvent mixture; type: physicochemical; details: estimate from a water/solvent mixture solute
[5] = Effect of benzyl benzoate on fulvestrant solubility in castor oil at 25°C (Table 3); type: physicochemical
[6] = system: uterotrophic action of oestradiol; details: monkeys; cited from earlier work
hypothalamic ER = details: in vivo; cited from earlier work
[7] = system: uterotrophic action of oestradiol; details: rats; cited from earlier work
[8] = system: uterotrophic action of oestradiol; details: mice; cited from earlier work
[9] = Solubility of fulvestrant in oil based formulations with and without alcohols (Table 4); type: physicochemical; details: 25 °C, oil or lipid
uterus = details: intact adult rats, cited from earlier work
[10] = Solubility of fulvestrant in different solvents at 25° C. (Table 2); type: physicochemical

dissipation from the injection site [1]: dissipates rapidly | time to removal from the body after administration [1]: ≤ 24 h
SMILES: OCc1ccccc1 [benzyl alcohol]

aqueous solubility [4]: around 10 ngml^−1 | Fulvestrant Solubility ([5]; % w/v: ethanol (96%) 5, benzyl alcohol 5, benzyl benzoate 15, castor oil to 100): 36 mgml^−1 | Fulvestrant Solubility ([5]; % w/v: ethanol (96%) 5, benzyl alcohol 5, no benzyl benzoate, castor oil to 100): 27 mgml^−1 | Fulvestrant Solubility ([5]; % w/v: ethanol (96%) 10, benzyl alcohol 5, benzyl benzoate 15, castor oil to 100): 54 mgml^−1 | Fulvestrant Solubility ([5]; % w/v: ethanol (96%) 10, benzyl alcohol 5, no benzyl benzoate, castor oil to 100): 46 mgml^−1 | Fulvestrant Solubility ([5]; % w/v: ethanol (96%) 10, benzyl alcohol 10, benzyl benzoate 15, castor oil to 100): 65 mgml^−1 | Fulvestrant Solubility ([5]; % w/v: ethanol (96%) 10, benzyl alcohol 10, no benzyl benzoate, castor oil to 100): 45 mgml^−1 | Fulvestrant Solubility ([5]; % w/v: ethanol (96%) 15, benzyl alcohol 15, benzyl benzoate 15, castor oil to 100): 102 mgml^−1 | Fulvestrant Solubility ([5]; % w/v: ethanol (96%) 15, benzyl alcohol 15, no benzyl benzoate, castor oil to 100): 76 mgml^−1 | solubility [9]: 70.1 mg/mL (≈ 116 mM) | solubility ([9]; Fulvestrant Solubility, Vehicle minus alcohols, Sesame seed oil based, alcohols removed): 0.7 mg/mL (≈ 1.15 mM) | solubility ([9]; Fulvestrant Solubility, Vehicle minus alcohols, Sesame seed/Castor oil (1:1) based, alcohols removed, 25° C.): 4.4 mg/mL (≈ 7.25 mM) | solubility ([9]; Arachis oil based oil formulation, complete vehicle, Fulvestrant Solubility, Arachis oil based, ethanol [96%] (10%), benzyl alcohol (10%), benzyl benzoate (15%), oil to volume): 40.2 mg/mL (≈ 66.3 mM) | solubility ([9]; Arachis oil based oil formulation, vehicle minus alcohols, Fulvestrant Solubility, Arachis oil based, alcohols removed): < 0.2 mg/mL | solubility ([9]; Castor oil based oil formulation, complete vehicle, Fulvestrant Solubility, Castor oil based, ethanol [96%] (10%), benzyl alcohol (10%), benzyl benzoate (15%), oil to volume): 81.2 mg/mL (≈ 134 mM) | solubility ([9]; Castor oil based oil formulation, vehicle minus alcohols, Fulvestrant Solubility, Castor oil based, alcohols removed): 12.6 mg/mL (≈ 20.8 mM) | solubility ([9]; Miglyol 812-N based oil formulation, complete vehicle, Fulvestrant Solubility, Miglyol 812-N based, ethanol [96%] (10%), benzyl alcohol (10%), benzyl benzoate (15%), oil to volume): 86.8 mg/mL (≈ 143 mM) | solubility ([9]; Miglyol 812-N based oil formulation, vehicle minus alcohols, Fulvestrant Solubility, Miglyol 812-N based, alcohols removed): 1.7 mg/mL (≈ 2.8 mM) | solubility ([9]; Sesame seed oil based oil formulation, complete vehicle, Fulvestrant Solubility, Sesame seed oil based, ethanol [96%] (10%), benzyl alcohol (10%), benzyl benzoate (15%), oil to volume): 45.7 mg/mL (≈ 75.3 mM) | solubility ([10]; solvent Arachis oil, 25° C.): 0.45 mgml^−1 | solubility ([10]; solvent Benzyl Alcohol, 25° C.): >200 mgml^−1 | solubility ([10]; solvent Benzyl benzoate, 25° C.): 6.15 mgml^−1 | solubility ([10]; solvent Castor oil, 25° C.): 20 mgml^−1 | solubility ([10]; solvent Ethanol, 25° C.): >200 mgml^−1 | solubility ([10]; solvent Ethyl oleate, 25° C.): 1.25 mgml^−1 | solubility ([10]; solvent Isopropyl myristate, 25° C.): 0.80 mgml^−1 | solubility ([10]; solvent Miglyol 810, 25° C.): 3.06 mgml^−1 | solubility ([10]; solvent Miglyol 812, 25° C.): 2.72 mgml^−1 | solubility ([10]; solvent Sesame oil, 25° C.): 0.58 mgml^−1 | solubility ([10]; solvent Span 85 (surfactant), 25° C.): 3.79 mgml^−1 | solubility ([10]; solvent Water, 25° C., read-out: SOLUBILITY): 1 µg/mL (≈ 0.00165 mM)
SMILES: C[C@]12CC[C@@H]3c4ccc(O)cc4C[C@@H](CCCCCCCCC[S+]([O-])CCCC(F)(F)C(F)(F)F)[C@H]3[C@@H]1CC[C@@H]2O (stereo partly drawn) [fulvestrant, 7α-[9-(4,4,5,5,5-Pentafluoropentylsulphinyl)nonyl]oestra-1,3-5(10)-triene-3,17β-diol]
block of growth stimulatory action of oestradiol [2]: completely blocks | potency and effectiveness compared with tamoxifen [2]: more potent and more effective than tamoxifen | crossing of the blood-brain barrier [3]: does not cross the blood-brain barrier | block of uterotrophic action of oestradiol [6]: blocks completely | block of hypothalamic ER (hypothalamic ER): does not block | block of uterotrophic action of oestradiol [7]: blocks completely | block of uterotrophic action of oestradiol [8]: blocks completely | effect on bone density and gonadotrophin secretion (uterus; at the dose achieving maximum regression of the uterus): does not adversely affect bone density or lead to increased gonadotrophin secretion | regression of the uterus (uterus): maximum regression of the uterus
